Publication PMC2364081, “Antagonists of retinoic acid receptors (RARs) are potent growth inhibitors of prostate carcinoma cells” (British Journal of Cancer, 2001)

Assays:
[1] = test system: FBS-grown LNCaP, DU145 and PC3 cells; assay: Plate colony formation assay, stated over the three FBS-grown lines; type: cell-based, human; details: 100 nM
Text: Prostate cancer is one of the most common cancers in European and American males and has a high mortality rate (Landis et al, 1998; Rosenthal, 1998). Early disease is managed conservatively in Europe although in selected patients surgery is curative. In advanced disease, androgen ablation can produce symptomatic improvement, but the tumour often re-emerges in an androgen- independent and incurable form. One proposed treatment for androgen-independent prostate carcinoma is differentiation ther- apy, in which agents such as all-trans-retinoic acid (ATRA), 9-cis- retinoic acid and 1, 25-dihydroxyvitamin D3 (D3 ) are used to induce growth arrest, differentiation and sometimes apoptosis of the tumour cells (Liang et al, 1999; de Vos et al, 1997; Skowronski et al, 1994; Hedlund et al, 1997). ATRA and synthetic analogues exert their biological effects by binding to two families of retinoid receptors, […]. These are ligand-dependent transcription factors of the steroid/thyroid hormone nuclear receptor superfamily (Chambon 1994; Boehm et al, 1995). Activated RARs bind to retinoic acid-responsive elements (RAREs) in the promoters of genes and thus regulate gene expression. They also antagonize the activity of the tran- scription factor AP1 and thereby down-regulate the expression of some AP1-activated genes (Nagpal et al, 1995). […]

[2] = biological target: T1, RARγ (Homo sapiens, UniProt P13631); assay: Binding to baculovirus-expressed RARγ; set-up: made in house; details: baculovirus-expressed receptor
T1 sequence (P13631 1-454): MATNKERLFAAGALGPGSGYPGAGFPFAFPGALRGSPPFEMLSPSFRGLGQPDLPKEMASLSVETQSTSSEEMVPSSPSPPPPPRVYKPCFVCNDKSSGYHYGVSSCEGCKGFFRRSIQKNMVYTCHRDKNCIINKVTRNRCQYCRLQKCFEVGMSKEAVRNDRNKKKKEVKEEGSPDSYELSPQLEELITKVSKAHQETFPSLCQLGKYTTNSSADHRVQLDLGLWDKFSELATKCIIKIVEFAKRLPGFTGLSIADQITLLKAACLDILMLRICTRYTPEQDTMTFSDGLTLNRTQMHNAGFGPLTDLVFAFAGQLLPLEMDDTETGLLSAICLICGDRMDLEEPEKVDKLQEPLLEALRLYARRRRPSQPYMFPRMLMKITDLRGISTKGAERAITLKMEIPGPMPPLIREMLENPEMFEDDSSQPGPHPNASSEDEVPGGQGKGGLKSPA
Text: (§1) Prostate cancer is one of the most common cancers in European and American males and has a high mortality rate (Landis et al, 1998; Rosenthal, 1998). Early disease is managed conservatively in Europe although in selected patients surgery is curative. In advanced disease, androgen ablation can produce symptomatic improvement, but the tumour often re-emerges in an androgen- independent and incurable form. One proposed treatment for androgen-independent prostate carcinoma is differentiation ther- apy, in which agents such as all-trans-retinoic acid (ATRA), 9-cis- retinoic acid and 1, 25-dihydroxyvitamin D3 (D3 ) are used to induce growth arrest, differentiation and sometimes apoptosis of the tumour cells (Liang et al, 1999; de Vos et al, 1997; Skowronski et al, 1994; Hedlund et al, 1997). ATRA and synthetic analogues exert their biological effects by binding to two families of retinoid receptors, […]. These are ligand-dependent transcription factors of the steroid/thyroid hormone nuclear receptor superfamily (Chambon 1994; Boehm et al, 1995). Activated RARs bind to retinoic acid-responsive elements (RAREs) in the promoters of genes and thus regulate gene expression. They also antagonize the activity of the tran- scription factor AP1 and thereby down-regulate the expression of some AP1-activated genes (Nagpal et al, 1995). One approach to unravelling the contributions of RAR sub-types to these actions has been the development of synthetic retinoids with selective activities at individual RARs and RXRs. For example, the diaryl- acetylenic retinoids allow separation of transactivation and AP1 antagonism functions at RAR (Nagpal et al, 1995). Recently, compounds that are selective for particular RAR sub-types have been synthesized: these include both agonists and antagonists (Chandraratna, 1995; Teng et al, 1999; Johnson et al, 1999). The functional selectivity of these compounds may open the way to achieving differentiation or apoptosis of tumour cells with minimal systemic side effects (Chandraratna, 1995). Cell lines that are commonly used in the evaluation of investiga- tional agents for prostate cancer include LNCaP, DU-145 and PC- 3. […] These lines are relatively insensitive to growth inhibition and induction of apoptosis by ATRA and by synthetic agonists. […] Fenretinide (4HPR) induces apoptosis of LNCaP and of PC-3 cells at 1-5 M and 25 µM, respectively (Pienta et al, 1993; Heish and Wu, 1997). Pfahl and colleagues examined the growth inhibitory effects of a panel of receptor-selective retinoids against DU145 and PC-3 cells and achieved complete growth inhibition and induction of apoptosis between 1 M and 10 M (Lu et al, 1999). […] Antagonists of retinoic acid receptors (RARs) are potent growth inhibitors of prostate carcinoma cells LA Hammond1 , CH Van Krinks2 , J Durham2 , SE Tomkins2 , RD Burnett3 , EL Jones1 , RAS Chandraratna3 and G Brown2 Divisions of 1 Cancer Studies and of 2 Immunity and Infection, University of Birmingham Medical School, Edgbaston, Birmingham B15 2TT, UK and 3 Retinoid Research, Allergan Inc., Irvine, California, USA Summary Novel synthetic antagonists of retinoic acid receptors (RARs) have been developed. To avoid interference by serum retinoids when testing these compounds, we established serum-free grown sub-lines (>3 years) of the prostate carcinoma lines LNCaP, PC3 and DU145. […] A component(s) of serum and of LNCaP-conditioned medium diminishes the activity of antagonists: this factor is not the most likely candidates IGF-1 and EGF. In vitro studies of RAR antagonists together with data from RAR-null mice lead to the hypothesis that RAR-regulated gene transcription is necessary for the survival and maintenance of prostate epithelium. […]

[3] = test system: LNCaP ITS+ cells; assay: Plate colony formation (clonal proliferation) assay, serum-free (ITS+)-grown LNCaP; type: cell-based, human
Text: as §1

## CCc1ccc(C2=CC(C)(C)Sc3ccc(C#Cc4ccc(C(=O)O)cc4)cc32)cc1 [AGN194310]
[1]
  inhibition of colony formation: 11-23%
[2]
  Kd: 5 nM
[3]; 50 nM AGN194310 together with 100 nM TTNPB
  growth inhibitory effect in combination with TTNPB: almost complete reversal
[3]; 50 nM alone (Figure 3)
  colony formation (% of control values): 41%
[3]; 100 nM AGN194310 together with 100 nM TTNPB
  colony formation (% of control values): 40%
[3]; 100 nM alone (Figure 3)
  colony formation (% of control values): 14%
[3]; 100 nM, ITS+ cells plated in ITS+ medium (Figure 5A)
  colony formation (% of control): < 1%
[3]; 100 nM, LNCaP ITS+ cells plated in LNCaP-conditioned medium
  growth inhibitory activity in LNCaP-conditioned medium: abrogated
[3]; 100 nM, with EGF at 1, 10 and 20 ng/ml
  inhibition of colony formation: > 95%
[3]; LNCaP, serum-free (ITS+), 14 days
  IC50: 16 nM
[3]; colony assay
  concentration required to attain maximum growth inhibition: 100 nM
